From article PMC6627486, “Ipomoeassin F Binds Sec61α to Inhibit Protein Translocation” (Journal of the American Chemical Society, 2019) come the findings set out here.

Read-outs that look alike come from different tables or passages of the source.

Holding throughout (type): cell-based, human
Assay [1] deals with CD62L expression in Jurkat T cells. In words: CD62L expression by Jurkat T cells. To be noted: 24 h treatment. On the procedure:
Jurkat E6.1 (ATCC TIB-152TM) T cells were cultured in RPMI GlutamaxTM (Life Technologies), supplemented with 10% heat-inactivated fetal calf serum (FCS) (Invitrogen) and penicillin/streptomycin (100 U/ml, 100 µg/ml). Cells were treated with Ipomoeassin F or mycolactone for 24 h, then pelleted and stained with FITC-conjugated anti-human CD62L (clone DREG-56 (BioLegend #304804) at 500 ng/ml) during 40 min at 4°C. Fluorescence signals were acquired on an Accuri CD (BD) and analyzed with the […]
FlowJo X software. […]

In another assay the test system is HEK R66I. In words: Alamar Blue viability, HEK293 expressing Sec61α R66I. The following applies: read-out: cell viability IC50. How it is done:
AlamarBlue Cytotoxicity Assay […]
Compounds were diluted from a DMSO stock into culture medium as described above. Cells were treated for 96 h, then viability measured with AlamarBlue, detected using the conditions described but with a BMG Fluostar Optima Microplate Reader. The percentage of viability compared to the negative control (DMSO-treated cells) was determined. GraphPad Prism 6 software was used to make a plot of % viability versus sample […]
HCT116 and HEK293T. Viable cells were counted using an automated cell counter (BioRad TC20) before each experiment. Experiments were performed either in quadruplicate or duplicate sets. First 100µ l of HCT116 or HEK293T cells at a density of 25,000 cells/m l was seeded in black wall, clear bottom, 96-well plates (2500 cells/well) (Viewplate-96 Perkin Elmer). HEK293 FRT Trex cells were seeded in complete medium supplemented to 1 μg/ml Doxycycline to induce expression of Sec61a constructs. Cells were then incubated at 37 °C and 5% CO2 for 24 h. The compounds were dissolved in DMSO to make drug stocks (10 mM). […] Emission of each well at 620 nm was detected by a microplate reader (Perkin Elmer EnSpire) at excitation 580 nm. The percentage of viability compared to the negative control (DMSO -treated cells) was determined. […]
In general terms: The colour change of resazurin is a common sign of viable cells or microbes.

For a further assay, the system named is HCT R66K. Put plainly: Alamar Blue viability, HCT116 Sec61α R66K (96 h). On the procedure: AlamarBlue Cytotoxicity Assay
MDA-MB-231, MCF-10A and HCT116. Viable cells were counted with a hemocytometer immediately before each experiment . Experiments were done in triplicate. First, 100 μL of MDA-MB-231 cells or MCF-10A cells at the density of 50,000 cells/mL was seeded in a 96-well plate (5,000 cells/well) and then incubated at 37 °C and 5% CO2 for 24 h. The compounds were dissolved in DMSO (dimethyl sulfoxide) to make drug stocks (10 mM). The stock solutions were diluted with the complete DMEM high glucose culture medium to make a series of gradient fresh working solutions right before each test. Subsequently, the cells were treated with 100 μL of the freshly made gradient working solution in a total volume of 200 μL/well for 72 h. After that, the media were discarded and 200 μL of the fresh complete medium containing 10% of AlamarBlue (resazurin) stock solution was added to each well. The plate was then incubated at 37 °C and 5% CO2 for another 3 h. Emission of each well at 620 nm was detected by a microplate reader (BioTek Synergy H1) at excitation 580 nm. For HCT116 WT and mutant lines, cells were seeded at 1000 cells/ well in complete McCoys medium. […] Cells were treated for 96 h, then viability measured with AlamarBlue, detected using the conditions described but with a BMG Fluostar Optima Microplate Reader. […]
was determined. […]

Broadly, the IC50 is the point on the concentration scale where inhibition reaches its midpoint. As to `CC(=C\C=C\C(C)=C\[C@H](O)[C@@H](O)C[C@H](C)O)/C=C(C)/C=C/C(=O)O[C@H]1CCCC(=O)O[C@@H]([C@@H](C)C/C(C)=C/[C@@H](C)[C@H](O)C[C@@H](C)O)C/C=C(\C)C[C@@H]1C` [mycolactone, reference compound], the IC50 was 6.3 nM in assay [1], 4620 nM in the assay on HEK R66I (72 h) and over 330 nM in the assay with HCT R66K (read-out: cell viability IC50).

Turning to `C/C=C(\C)C(=O)O[C@@H]1[C@@H](O)[C@@H]2O[C@H]3[C@H](O[C@@H](CCCCC)CCCCCCC(=O)CCC(=O)OC[C@@H](O2)[C@H]1OC(=O)/C=C/c1ccccc1)O[C@H](C)[C@H](OC(C)=O)[C@@H]3O` [ipomoeassin F], the IC50 was 6.3 nM in assay [1] (Homo sapiens); over 10000 nM in the assay with HEK R66I (Homo sapiens, HEK293, 72 h); 131 ± 15 nM in the assay on HCT R66K (Homo sapiens, HCT-116, read-out: cell viability IC50).
